{"source": "patent US6514941B1", "about": "“Method of preparing a casein hydrolysate enriched in anti-hypertensive peptides” (Campina Melkunie B.V., priority 1999, dated 2003)", "origin": "cited, not measured here", "tested_on": "SHRSP", "conditions": "dose that is not hypotensive", "data": [{"smiles": "C[C@H](CS)C(=O)N1CCC[C@H]1C(=O)O", "note": "[captopril]", "values": [{"measurement": "onset of stroke", "value": "inhibits the onset of stroke"}]}]}
